Data from patent publication US6355799B1, “Substituted benzene compounds, process for their preparation, and herbicidal and defoliant compositions containing them” (ISK Americas Incorporated, priority 1997, dated 2002).

Legend:
Type in all cases: in vivo
Conditions in all cases: pre-emerge, 14 days after application, rating scale 0-100
[1] = test system: velvetleaf (Abutilon theophrasti, ABUTH); experiment: Pre-emerge test, greenhouse herbicide activity screening
In short: (§1)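 Compounds in acetone were track-sprayed at 15-1000 g ai/ha (187 l/ha) on sandy loam pots: pre-emerge one day after seeding, post-emerge at 2-3 leaf stage with 0.25% v/v non-ionic surfactant. Phytotoxicity was rated 14 days later on a 0 (no damage) to 100 (complete death) scale.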

[2] = test system: sicklepod (Cassia obtusifolia, CASOB); experiment: as above
In short: as §1

[3] = test system: common ragweed (Ambrosia artemisizfolia L., AMBEL); experiment: as above
In short: as §1

[4] = test system: large crabgrass (Digitaria sanguinalis, DIGSA); experiment: as above
In short: as §1

[5] = test system: johnsongrass (Sorghum halepense, SORHA); experiment: as above
In short: as §1

[6] = test system: ivyleaf morningglory (Ipomoea hederacea, IPOHE); experiment: as above
In short: as §1

[7] = test system: barnyardgrass (Echinochloa crus-galli, ECHCG); experiment: as above
In short: as §1

[8] = test system: lambsquarters (Chenopodium album, CHEAL); experiment: as above
In short: as §1

[9] = test system: green foxtail (Setaria viridis, SETVI); experiment: as above
In short: as §1

[10] = test system: upland rice (Oryza sp., var. Tebonnet, RICE); experiment: Pre-emerge test, crop safety
In short: (§2)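 Applied at 15–1000 g ai/ha from acetone in 187 l/ha spray volume. Post-emergence applications included 0.25% v/v non-ionic surfactant and reached plants sown 8–21 days before. Pre-emergence applications were incorporated by surface watering. Efficacy or crop damage was rated on a 0–100 scale after 14 days.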

[11] = test system: field corn (Zea mays L., var. Dekalb 535, CORN); experiment: Pre-emerge test, crop safety
In short: as §2

[12] = test system: redroot pigweed (Amaranthus retroflexus, AMARE); experiment: Pre-emerge test, greenhouse herbicide activity screening
In short: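 Compounds in acetone were track-sprayed at 187 l/ha, 15–1000 g ai/ha, onto sandy loam pots. Pre-emerge seeds were sown one day before spraying, with surface watering afterwards. Post-emerge plants were at the 2–3 leaf stage and sprayed with 0.25% v/v non-ionic surfactant. Injury was rated 0–100 at 14 days.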

Q: What does the source list for `CCOC(=O)C(Cl)Cc1c(OCC)c(Cl)cc(F)c1-n1c(=O)cc(C(F)(F)F)n(C)c1=O` (stereo not drawn) [14-64]?
A: phytotoxicity rating ABUTH ([1]; 63 g ai/ha): 90; phytotoxicity rating ABUTH ([1]; 250 g ai/ha): 100; phytotoxicity rating CASOB ([2]; 63 g ai/ha): 0; phytotoxicity rating CASOB ([2]; 250 g ai/ha): 0; phytotoxicity rating AMBEL ([3]; 63 g ai/ha): 20; phytotoxicity rating AMBEL ([3]; 250 g ai/ha): 60; phytotoxicity rating DIGSA ([4]; 63 g ai/ha): 50; phytotoxicity rating DIGSA ([4]; 250 g ai/ha): 100; phytotoxicity rating SORHA ([5]; 63 g ai/ha): 0; phytotoxicity rating SORHA ([5]; 250 g ai/ha): 20; phytotoxicity rating IPOHE ([6]; 63 g ai/ha): 0; phytotoxicity rating IPOHE ([6]; 250 g ai/ha): 0; phytotoxicity rating ECHCG ([7]; 63 g ai/ha): 0; phytotoxicity rating ECHCG ([7]; 250 g ai/ha): 95; phytotoxicity rating CHEAL ([8]; 63 g ai/ha): 60; phytotoxicity rating CHEAL ([8]; 250 g ai/ha): 100; phytotoxicity rating SETVI ([9]; 63 g ai/ha): 0; phytotoxicity rating SETVI ([9]; 250 g ai/ha): 100; phytotoxicity rating RICE ([10]; 63 g ai/ha): 0; phytotoxicity rating RICE ([10]; 250 g ai/ha): 10; phytotoxicity rating CORN ([11]; 63 g ai/ha): 0; phytotoxicity rating CORN ([11]; 250 g ai/ha): 0; phytotoxicity rating AMARE ([12]; 63 g ai/ha): 100; phytotoxicity rating AMARE ([12]; 250 g ai/ha): 100
